The target in the assay is T1, hmGluR4 (Homo sapiens, UniProt Q14833).
T1 construct: host or cells: HEK293T
Nature of the assay: HEK-293 mGluR4 cells cAMP assay with EC20 L-Glutamate (HTRF). The following applies: positive allosteric activity at EC20 L-Glutamate, 10 μM Forskolin, HEK293T mGluR4 cells, cAMP HTRF; read-out: hrmGluR4/HEK293T-hmGluR4 (EC50). The format is cell-based. The procedure, abridged:
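PAM mode in mGluR4 HEK293T suspension cells, glutamine-starved overnight; 10 μM forskolin (final) with EC20 L-glutamate (2.3 μM), 2000 cells/well, 30 min at 37 °C. cAMP measured by two-step HTRF after 60 min at room temperature. Basal control EC20 glutamate; EC100 400 μM glutamate (2×).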

T1 sequence (Q14833 33-912): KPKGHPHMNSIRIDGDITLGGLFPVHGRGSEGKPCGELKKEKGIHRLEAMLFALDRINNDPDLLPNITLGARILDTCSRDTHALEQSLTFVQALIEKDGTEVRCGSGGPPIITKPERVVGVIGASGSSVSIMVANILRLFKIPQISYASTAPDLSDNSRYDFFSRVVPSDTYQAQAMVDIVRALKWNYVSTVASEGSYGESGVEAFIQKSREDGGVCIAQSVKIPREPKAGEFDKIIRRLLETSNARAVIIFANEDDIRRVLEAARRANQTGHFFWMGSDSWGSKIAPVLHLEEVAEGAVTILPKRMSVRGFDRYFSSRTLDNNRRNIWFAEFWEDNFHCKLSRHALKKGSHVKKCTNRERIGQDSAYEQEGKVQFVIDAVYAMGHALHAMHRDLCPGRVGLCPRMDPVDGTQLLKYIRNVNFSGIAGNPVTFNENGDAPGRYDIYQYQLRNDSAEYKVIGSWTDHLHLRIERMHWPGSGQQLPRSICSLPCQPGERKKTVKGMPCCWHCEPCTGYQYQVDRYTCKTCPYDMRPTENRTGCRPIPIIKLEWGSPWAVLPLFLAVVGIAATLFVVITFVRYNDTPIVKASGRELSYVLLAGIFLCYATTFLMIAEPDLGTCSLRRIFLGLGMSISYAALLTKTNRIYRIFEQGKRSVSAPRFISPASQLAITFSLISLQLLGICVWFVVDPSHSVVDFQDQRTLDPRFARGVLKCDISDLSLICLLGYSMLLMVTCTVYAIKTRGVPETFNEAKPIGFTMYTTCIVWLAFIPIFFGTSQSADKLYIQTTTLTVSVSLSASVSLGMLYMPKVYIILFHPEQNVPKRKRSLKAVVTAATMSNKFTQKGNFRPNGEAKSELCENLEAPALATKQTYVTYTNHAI

With `COc1ccc(N2C(=O)c3ccccc3NC23CCN(Cc2ccccc2C(F)(F)F)CC3)cc1` [Compound 66, 3′-(4-Methoxyphenyl)-1-(2-(trifluoromethyl)benzyl)-1′H-spiro[piperidine-4,2′-quinazolin]-4′(3′H)-one], the EC50 is 1000 to 10000 nM.

Regarding `COC(=O)c1ccc2c(c1)NC1(CCN(Cc3ccc(F)c(F)c3)CC1)N(c1ccc(OC(F)(F)F)cc1)C2=O` [Compound 36, Methyl 1-(3,4-difluorobenzyl)-4′-oxo-3′-(4-(trifluoromethoxy)phenyl)-3′,4′-dihydro-1′H-spiro[piperidine-4,2′-quinazoline]-7′-carboxylate], the EC50 was less than 1000 nM.

As to `O=C1c2ccc(Br)cc2NC2(CCN(Cc3ccccn3)CC2)N1c1ccc(OC(F)(F)F)cc1` [Compound 103, 7′-Bromo-1-(pyridin-2-ylmethyl)-3′-(4-(trifluoromethoxy)phenyl)-1′H-spiro[piperidine-4,2′-quinazolin]-4′(3′H)-one], the EC50 lay in the range of 1000 to 10000 nM.

Turning to `O=C1c2ccc(Br)cc2NC2(CCN(Cc3ccc(F)c(F)c3)CC2)N1c1ccc(Cl)cc1` [Compound 25, 7′-Bromo-3′-(4-chlorophenyl)-1-(3,4-difluorobenzyl)-1′H-spiro[piperidine-4,2′-quinazolin]-4′(3′H)-one], the EC50 was less than 1000 nM.

For the molecule `COc1ccc(N2C(=O)c3ccccc3NC23CN(Cc2ccccc2C(F)(F)F)C3)cc1` [Compound 81, 3′-(4-Methoxyphenyl)-1-(2-(trifluoromethyl)benzyl)-1′H-spiro[azetidine-3,2′-quinazolin]-4′(3′H)-one], the EC50 was in the range of 1000 to 10000 nM.

Consider `COc1ccc(N2C(=O)c3ccccc3NC23CN(Cc2cccc(Cl)c2)C3)cc1` [Compound 76, 1-(3-Chlorobenzyl)-3′-(4-methoxyphenyl)-1′H-spiro[azetidine-3,2′-quinazolin]-4′(3′H)-one], for which the EC50 lay within 1000 to 10000 nM.

Regarding `O=C(OCC1CC1)c1ccc2c(c1)NC1(CCN(Cc3ccc(F)c(F)c3)CC1)N(c1ccc(OC(F)(F)F)cc1)C2=O` [Compound 58, Cyclopropylmethyl 1-(3,4-difluorobenzyl)-4′-oxo-3′-(4-(trifluoromethoxy)phenyl)-3′,4′-dihydro-1′H-spiro[piperidine-4,2′-quinazoline]-7′-carboxylate], the EC50 is less than 1000 nM.

For `O=C1c2ccc(Br)cc2NC2(CCN(Cc3ccccc3)CC2)N1c1ccc(Cl)cc1` [Compound 71, 1-Benzyl-7′-bromo-3′-(4-chlorophenyl)-1′H-spiro[piperidine-4,2′-quinazolin]-4′(3′H)-one], the EC50 lay in the range of 1000 to 10000 nM.

Consider `O=C1c2ccc(Br)cc2NC2(CCN(Cc3ccc(F)c(F)c3)CC2)N1c1ccc(OC(F)(F)F)c(Cl)c1` [Compound 102, 7′-Bromo-3′-(3-chloro-4-(trifluoromethoxy)phenyl)-1-(3,4-difluorobenzyl)-1′H-spiro[piperidine-4,2′-quinazolin]-4′(3′H)-one], for which the EC50 was in the range of 1000 to 10000 nM.

Turning to `COc1ccc(N2C(=O)c3ccccc3NC23CCN(Cc2ccc(F)cc2)CC3)cc1` [Compound 114, 1-(4-Fluorobenzyl)-3′-(4-methoxyphenyl)-1′H-spiro[piperidine-4,2′-quinazolin]-4′(3′H)-one], the EC50 was 1000 to 10000 nM.

Consider `COCCOc1ccc(N2C(=O)c3ccc(F)cc3NC23CCN(Cc2ccc(F)c(F)c2)CC3)cc1` [Compound 106, 1-(3,4-difluorobenzyl)-7′-fluoro-3′-(4-(2-methoxyethoxyl)phenyl)-1′H-spiro[piperidine-4,2′-quinazolin]-4′(3′H)-one], for which the EC50 is 1000 to 10000 nM.

As for `CCOC(=O)c1ccc2c(c1)NC1(CN(C(C)c3ccccc3Cl)C1)N(c1ccc(OC(F)(F)F)cc1)C2=O` (stereo not shown) [Compound 30, Ethyl 1-(1-(2-chlorophenyl)ethyl)-4′-oxo-3′-(4-(trifluoromethoxy)phenyl)-3′,4′-dihydro-1′H-spiro[azetidine-3,2′-quinazoline]-7′-carboxylate], the EC50 was less than 1000 nM.

Take `COc1ccc(N2C(=O)c3ccc(Cl)cc3NC23CCN(Cc2cccc(Cl)c2)CC3)cc1` [Compound 38, 7′-Chloro-1-(3-chlorobenzyl)-3′-(4-methoxyphenyl)-1′H-spiro[piperidine-4,2′-quinazolin]-4′(3′H)-one]: the EC50 is less than 1000 nM.

On to `CCC(c1ccccc1)N1CCC2(CC1)Nc1cc(Br)ccc1C(=O)N2c1ccc(Cl)cc1` (stereo not shown) [Compound 61, 7′-Bromo-3′-(4-chlorophenyl)-1-(1-phenylpropyl)-1′H-spiro[piperidine-4,2′-quinazolin]-4′(3′H)-one], for which the EC50 is less than 1000 nM.

As to `O=C1c2ccc(-c3ccncn3)cc2NC2(CCN(Cc3ccc(F)c(F)c3)CC2)N1c1ccc(OC(F)(F)F)cc1` [Compound 9, 1-(3,4-Difluorobenzyl)-7′-(pyrimidin-4-yl)-3′-(4-(trifluoromethoxy)phenyl)-1′H-spiro[piperidine-4,2′-quinazolin]-4′(3′H)-one], the EC50 is less than 1000 nM.

Turning to `CC(c1ccc(F)c(F)c1)N1CCC2(CC1)Nc1cc(Br)ccc1C(=O)N2c1ccc(Cl)cc1` (stereo not shown) [Compound 7, 7′-Bromo-3′-(4-chlorophenyl)-1-(1-(3,4-difluorophenyl)ethyl)-1′H-spiro[piperidine-4,2′-quinazolin]-4′(3′H)-one], the EC50 was less than 1000 nM.

As for `COc1ccc(N2C(=O)c3ccccc3NC23CN(Cc2ccccc2OC(F)(F)F)C3)cc1` [Compound 65, 3′-(4-Methoxyphenyl)-1-(2-(trifluoromethoxy)benzyl)-1′H-spiro[azetidine-3,2′-quinazolin]-4′(3′H)-one], the EC50 is less than 1000 nM.

`O=C1c2ccc(F)cc2NC2(CN(C(c3ccc(F)c(F)c3)C(F)(F)F)C2)N1c1ccc(OC(F)(F)F)cc1` (stereo not shown) [Compound 78, 1-(1-(3,4-Difluorophenyl)-2,2,2-trifluoroethyl)-7′-fluoro-3′-(4-(trifluoromethoxy)phenyl)-1′H-spiro[azetidine-3,2′-quinazolin]-4′(3′H)-one]: the EC50 was in the range of 1000 to 10000 nM.

`N#Cc1cccc(CN2CCC3(CC2)Nc2cc(C(F)(F)F)ccc2C(=O)N3c2ccc(OC(F)(F)F)cc2)c1` [Compound 42, 3-((4′-Oxo-3′-(4-(trifluoromethoxy)phenyl)-7′-(trifluoromethyl)-3′,4′-dihydro-1′H-spiro[piperidine-4,2′-quinazolin]-1-yl)methyl)benzonitrile]: the EC50 was less than 1000 nM.

Regarding `O=C1c2ccc(Br)cc2NC2(CCN(Cc3ccc(F)c(F)c3)CC2)N1c1ccc(OC(F)(F)F)cc1` [Compound 32, 7′-Bromo-1-(3,4-difluorobenzyl)-3′-(4-(trifluoromethoxy)phenyl)-1′H-spiro[piperidine-4,2′-quinazolin]-4′(3′H)-one], the EC50 is less than 1000 nM.

With `O=C1c2ccc(F)cc2NC2(CCN(Cc3ccc(F)c(F)c3)CC2)N1c1ccc(Cl)cc1` [Compound 64, 3′-(4-Chlorophenyl)-1-(3,4-difluorobenzyl)-7′-fluoro-1′H-spiro[piperidine-4,2′-quinazolin]-4′(3′H)-one], the EC50 is less than 1000 nM.

Consider `COc1ccc(N2C(=O)c3ccccc3NC23CCN(Cc2cccc(Cl)c2)CC3)cc1` [Compound 104, 1-(3-Chlorobenzyl)-3′-(4-methoxyphenyl)-1′H-spiro[piperidine-4,2′-quinazolin]-4′(3′H)-one], for which the EC50 was 1000 to 10000 nM.

Take `O=C1c2ccc(Br)cc2NC2(CCN(Cc3cccc4cnccc34)CC2)N1c1ccc(OC(F)(F)F)cc1` [Compound 27, 7′-Bromo-1-(isoquinolin-5-ylmethyl)-3′-(4-(trifluoromethoxy)phenyl)-1′H-spiro[piperidine-4,2′-quinazolin]-4′(3′H)-one]: the EC50 is less than 1000 nM.

Take `COc1ccc(N2C(=O)c3ccccc3NC23CCN(Cc2ccccc2OC(F)(F)F)CC3)cc1` [Compound 67, 3′-(4-Methoxyphenyl)-1-(2-(trifluoromethoxy)benzyl)-1′H-spiro[piperidine-4,2′-quinazolin]-4′(3′H)-one]: the EC50 was 1000 to 10000 nM.

With `COc1ccc(N2C(=O)c3ccccc3NC23CN(Cc2cccc(C)c2)C3)cc1` [Compound 89, 3′-(4-Methoxyphenyl)-1-(3-methylbenzyl)-1′H-spiro[azetidine-3,2′-quinazolin]-4′(3′H)-one], the EC50 was 1000 to 10000 nM.

For `N#Cc1cccc(CN2CC3(C2)Nc2cc(C(F)(F)F)ccc2C(=O)N3c2ccc(OC(F)(F)F)cc2)c1` [Compound 91, 3-((4′-Oxo-3′-(4-(trifluoromethoxy)phenyl)-7′-(trifluoromethyl)-3′,4′-dihydro-1′H-spiro[azetidine-3,2′-quinazolin]-1-yl)methyl)benzonitrile], the EC50 fell in the range of 1000 to 10000 nM.

Consider `O=C1c2ccc(Br)cc2NC2(CCN(C(c3ccc(F)c(F)c3)C(F)(F)F)CC2)N1c1ccc(OC(F)(F)F)cc1` (stereo not shown) [Compound 107, 7′-Bromo-1-(1-(3,4-difluorophenyl)-2,2,2-trifluoroethyl)-3′-(4-(trifluoromethoxy)phenyl)-1′H-spiro[piperidine-4,2′-quinazolin]-4′(3′H)-one], for which the EC50 is less than 1000 nM.

As for `COc1ccc(N2C(=O)c3ccccc3NC23CCN(Cc2ccccc2C)CC3)cc1` [Compound 109, 3′-(4-Methoxyphenyl)-1-(2-methylbenzyl)-1′H-spiro[piperidine-4,2′-quinazolin]-4′(3′H)-one], the EC50 lay within 1000 to 10000 nM.

Consider `O=C(Nc1ccc(OC(F)(F)F)cc1)c1ccc(Br)cc1O` [Compound 125, 4-Bromo-2-hydroxy-N-(4-trifluoromethoxy-phenyl)-benzamide], for which the EC50 was less than 1000 nM.

Consider `CSc1ccc(N2C(=O)c3ccc(-c4ccco4)cc3NC23CCN(Cc2ccc(F)c(F)c2)CC3)cc1` [Compound 41, 1-(3,4-Difluorobenzyl)-7′-(furan-2-yl)-3′-(4-(methylthio)phenyl)-1′H-spiro[piperidine-4,2′-quinazolin]-4′(3′H)-one], for which the EC50 is less than 1000 nM.

Consider `COc1ccc(N2C(=O)c3ccc(-c4ccccc4)cc3NC23CCN(Cc2ccc(F)c(F)c2)CC3)cc1` [Compound 19, 1-(3,4-Difluorobenzyl)-3′-(4-methoxyphenyl)-7′-phenyl-1′H-spiro[piperidine-4,2′-quinazolin]-4′(3′H)-one], for which the EC50 is less than 1000 nM.

The record behind these values is US9708321B2, “Spiro-quinazolinone derivatives and their use as positive allosteric modulators of mGluR4” (Merck Patent GmbH, priority 2013, dated 2017).
